Test results: patent publication US11033577B2, “Polymer conjugate of hexa-coordinated platinum complex” (priority 2015, dated 2021)

Columns and labels:
[1] = system: Human stomach cancer 4-1ST; experiment: Antitumor Test 1, human stomach cancer 4-1ST transplanted mouse; format: in vivo, BALB/cA-nu/nu mouse; conditions: caudal vein
Text: (§1) Human stomach cancer 4-1ST was subcultured subcutaneously in a BALB/cA-nu/nu mouse (hereinafter, nude mouse). Human stomach cancer 4-1ST was obtained from the Central Institute for Experimental Animals.
Human stomach cancer 4-1ST was collected subcutaneously from a nude mouse and was finely cut into blocks each measuring about 3 mm on each side. The tumor blocks thus obtained were subcutaneously transplanted into the dorsal side of nude mice using a trocar. On the 15th day after transplantation, where the average tumor volume had reached about 100 to 200 mm^3, various drugs were administered through the caudal vein. The use and dose (in terms of drug) of the various administered drugs are as follows. In regard to the Example 1 compound, the compound was dissolved in a 5% glucose injectable solution, and the solution was administered once at a dose of 25 mg/kg or 12.5 mg/kg. In regard to the Example 2 compound, the compound was dissolved in a 5% glucose injectable solution, and the solution was administered once at a dose of 25 mg/kg or 12.5 mg/kg. In regard to the Example 3 compound, the compound was dissolved in a 5% glucose injectable solution, and the solution was administered once at a dose of 20 mg/kg or 10 mg/kg. In regard to the Example 4 compound, the compound was dissolved in a 5% glucose injectable solution, and the solution was administered once at a dose of 20 mg/kg or 10 mg/kg. In regard to the Example 5 compound, the compound was dissolved in a 5% glucose injectable solution, and the solution was administered once at a dose of 20 mg/kg or 10 mg/kg. As a control drug, l-OHP was administered once at a dose of 20 mg/kg, and cisplatin was administered once at a dose of 10 mg/kg. Regarding the amounts of administration of l-OHP and cisplatin and the high amounts of administration of the various Example compounds, the maximum tolerable doses (MTD doses) were employed for all of the compounds. After the administration, the major axis (L) and the minor axis (W) of the tumor were measured over time using calipers, and the tumor volume (L×W×W×0.5) was calculated. The test was performed by employing four animals per group for all of a non-administered group as well as various drug-administered groups. During the period from the initiation of administration to the 21st day after administration, the relative tumor volume (T/C (%)) of each drug-administered group based on the relative tumor volume of a non-drug-administered group as 100 was calculated by the following formula as an index for the antitumor effect. T/C(%)=Relative tumor volume of administered group/relative tumor volume of non-administered group×100 Formula: […]

[2] = system: Human stomach cancer 4-1ST; experiment: Antitumor Test 2, human stomach cancer 4-1ST transplanted mouse; format: in vivo, BALB/cA-nu/nu mouse; conditions: caudal vein
Text: as §1
Human stomach cancer 4-1ST was collected subcutaneously from a nude mouse and was cut into blocks each measuring about 3 mm on each side. The tumor blocks thus obtained were transplanted subcutaneously on the dorsal side of nude mice using a trocar. On the 17th day after transplantation, where the average tumor volume had reached about 100 to 200 mm^3, various drugs were administered through the caudal vein. The use and dose (in terms of drug) of the various administered drugs are as follows. In regard to the Example 11 compound, the compound was dissolved in a 5% glucose injectable solution, and the solution was administered once at a dose of 15 mg/kg or 7.5 mg/kg. In regard to the Example 12 compound, the compound was dissolved in a 5% glucose injectable solution, and the solution was administered once at a dose of 30 mg/kg or 15 mg/kg. As a control drug, l-OHP was administered once at a dose of 18 mg/kg, and cisplatin was administered once at a dose of 10 mg/kg. Regarding the amounts of administration of l-OHP and cisplatin and the high amounts of administration of the various Example compounds, the maximum tolerable doses (MTD doses) were employed for all of the compounds. After the administration, the major axis (L) and the minor axis (W) of the tumor were measured over time using calipers, and the tumor volume (L×W×W×0.5) was calculated. The test was performed by employing four animals per group for all of a non-administered group as well as various drug-administered groups. During the period from the initiation of administration to the 21st day after administration, the relative tumor volume (T/C (%)) of each drug-administered group based on the relative tumor volume of a non-drug-administered group as 100 was calculated by the following formula as an index for the antitumor effect. T/C(%)=Relative tumor volume of administered group/relative tumor volume of non-administered group×100 Formula: […]

## O=C1[O][Pt]2([NH][C@@H]3CCCC[C@H]3[NH]2)[O]C1=O [l-OHP, oxaliplatin]
[1]; 20 mg/kg once, day 0
  T/C (%) in various numbers of days after administration: 100%
[1]; 20 mg/kg once, day 3
  T/C (%) in various numbers of days after administration: 72%
[1]; 20 mg/kg once, day 5
  T/C (%) in various numbers of days after administration: 57%
[1]; 20 mg/kg once, day 7
  T/C (%) in various numbers of days after administration: 49%
[1]; 20 mg/kg once, day 10
  T/C (%) in various numbers of days after administration: 49%
[1]; 20 mg/kg once, day 14
  T/C (%) in various numbers of days after administration: 45%
[1]; 20 mg/kg once, day 17
  T/C (%) in various numbers of days after administration: 46%
[1]; 20 mg/kg once, day 21
  T/C (%) in various numbers of days after administration: 41%
[2]; 18 mg/kg once, day 0
  T/C (%) in various numbers of days after administration: 100%
[2]; 18 mg/kg once, day 4
  T/C (%) in various numbers of days after administration: 84%
[2]; 18 mg/kg once, day 7
  T/C (%) in various numbers of days after administration: 52%
[2]; 18 mg/kg once, day 11
  T/C (%) in various numbers of days after administration: 50%
[2]; 18 mg/kg once, day 14
  T/C (%) in various numbers of days after administration: 50%
[2]; 18 mg/kg once, day 18
  T/C (%) in various numbers of days after administration: 60%
[2]; 18 mg/kg once, day 21
  T/C (%) in various numbers of days after administration: 57%

## N.N.[Cl][Pt][Cl] [Cisplatin, cisplatin]
[1]; 10 mg/kg once, day 0
  T/C (%) in various numbers of days after administration: 100%
[1]; 10 mg/kg once, day 3
  T/C (%) in various numbers of days after administration: 68%
[1]; 10 mg/kg once, day 5
  T/C (%) in various numbers of days after administration: 50%
[1]; 10 mg/kg once, day 7
  T/C (%) in various numbers of days after administration: 33%
[1]; 10 mg/kg once, day 10
  T/C (%) in various numbers of days after administration: 33%
[1]; 10 mg/kg once, day 14
  T/C (%) in various numbers of days after administration: 29%
[1]; 10 mg/kg once, day 17
  T/C (%) in various numbers of days after administration: 26%
[1]; 10 mg/kg once, day 21
  T/C (%) in various numbers of days after administration: 22%
[2]; 10 mg/kg once, day 0
  T/C (%) in various numbers of days after administration: 100%
[2]; 10 mg/kg once, day 4
  T/C (%) in various numbers of days after administration: 77%
[2]; 10 mg/kg once, day 7
  T/C (%) in various numbers of days after administration: 43%
[2]; 10 mg/kg once, day 11
  T/C (%) in various numbers of days after administration: 32%
[2]; 10 mg/kg once, day 14
  T/C (%) in various numbers of days after administration: 36%
[2]; 10 mg/kg once, day 18
  T/C (%) in various numbers of days after administration: 37%
[2]; 10 mg/kg once, day 21
  T/C (%) in various numbers of days after administration: 42%
